Tested on: form-deprivation myopia of guinea pigs
Assay: Monocular form-deprivation myopia in guinea pigs, sub-conjunctival injection
Type: in vivo, guinea pig
Details: form-deprivation eyes, 1 μM and 100 μM sub-conjunctival injection daily, after 4 weeks, vs vehicle control group
Experimental: Experimental animals were 3 weeks old, UK variety, three-color and short-haired guinea pigs. Monocular form-deprivation (FD) was performed by using a facemask, and the form-deprivation eyes were treated with adenylyl cyclase inhibitor (ACI) SQ22536 at different concentrations (for example, 1 μM and 100 μM) by sub-conjunctival injection, so as to differently decrease intraocular cAMP levels. Animals were divided into 4 groups randomly: form-deprivation control group (FD+non-injection), form-deprivation+vehicle control group (FD+vehicle) (vehicle here refers to 0.9% saline), form-deprivation+drug groups (FD+1 μM SQ22536 group and FD+100 μM SQ22536 group). Drugs were sub-conjunctivally injected at 9:00 am every day for 4 weeks. The contralateral eyes were not treated. Refraction were measured with an infrared eccentric refractometer (EIR). Corneal curvature radii were measured with a keratometer. Eye axis parameters, such as vitreous chamber depths and axial lengths, were measured with an A-scan ultrasonograph (11 MHz), respectively, before experiment, 2 weeks after treatment, and 4 weeks after treatment.

`Nc1ncnc2c1ncn2C1CCCO1` (stereo not drawn) [SQ22536, 9-(Tetrahydro-2-furanyl)-9H-purin-6-amine] was tested, and the “myopic refractive error (refraction difference between experimental eye and contralateral eye)” value (time- and concentration-dependent effect (FIG. 1)) was “less than that of the vehicle control group”, the “vitreous chamber elongation (vitreous chamber depth difference between experimental eye and contralateral eye)” value (time- and concentration-dependent effect (FIG. 2)) was “significantly less than that of the vehicle control group” and the “axial elongation (axial length difference between experimental eye and contralateral eye)” value (time- and concentration-dependent effect (FIG. 3)) was “significantly less than that of the vehicle control group”.

Reference: patent publication US9084791B2, “Method of inhibiting myopia and application of an adenylyl cyclase inhibitor as a drug for inhibiting myopia” (SCHOOL OF OPHTHALMOLOGY AND OPTOMETRY, WENZHOU MEDICAL …, priority 2010, dated 2015)
